In US20050261290A1, “Novel compounds of proline and morpholine derivatives” (priority 2004, published 2005):
Where two headings read alike, the source gives them in different places.

Molecular target: human 11b-hsd-1 (Homo sapiens, UniProt P28845)
Assay: Inhibition constant Ki of human 11b-hsd-1 (3H-cortisone to 3H-cortisol conversion, HPLC)
Format: biochemical
Settings: for Ki: apparent Ki, read-out: Ki app
Protocol: In each well, varying amounts of compounds are incubated with a fixed amount of 11b-hsd-1 (4 nM) and NADPH (500 μM) for 30 to 40 min at room temperature in the assay buffer. The enzyme concentration was determined by titration using reversible tight-binding inhibitors. […] The area of 3H-cortisol is calculated and plotted versus time to determine a linear velocity. […] Where vi, and vo are the rates of cortisol formation in the presence and in the absence of inhibitor, respectively, I is the inhibitor concentration and E is the 11 b-hsd-1 concentration in the assay buffer. […] NADPH, Glucose-6-Phosphate (G6P), and Glucose-6-Phosphate dehydrogenase was purchased from Sigma.

Chain of human 11b-hsd-1 (P28845 whole entry): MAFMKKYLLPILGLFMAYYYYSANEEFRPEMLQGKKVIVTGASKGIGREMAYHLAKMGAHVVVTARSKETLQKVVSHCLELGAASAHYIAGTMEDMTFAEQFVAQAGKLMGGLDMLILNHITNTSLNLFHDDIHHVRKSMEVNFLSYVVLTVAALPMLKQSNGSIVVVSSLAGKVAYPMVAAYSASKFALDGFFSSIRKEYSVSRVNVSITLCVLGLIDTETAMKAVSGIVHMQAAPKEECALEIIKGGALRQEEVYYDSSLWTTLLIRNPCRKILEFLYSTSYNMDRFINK

inhibition at 0.1 µM (0.1 μM compound) | Ki | inhibition at 0.1 µM (compound at 0.1 μM) | SMILES | also measured
84.6% | 17 nM | – | COc1ccccc1CNC(=O)[C@H]1CCCN1Cc1ccccc1 [Example 245] | –
92.6% | 22.4 nM | – | O=C(N[C@H]1c2ccccc2C[C@H]1O)[C@H]1CCCN1CC1CCCC1 [Example 293] | –
– | – | 100% | CCCN1CCC[C@@H]1C(=O)NC1CC2CCC1C2 (some centres unmarked) [Example 91] | –
– | – | 92% | CCCN1CCC[C@@H]1C(=O)N[C@@H]1CCCc2ccccc21 [Example 56] | Ki (human 11b-hsd-1): 8 nM
– | – | – | CCCN1CCC[C@@H]1C(=O)NC1CC2CCC1C2 (some centres unmarked) [Example 92] | % inh @ 0.1 μM (compound at 0.1 μM): 100%
– | – | 74% | CN1CCC(CN2CCOC[C@@H]2C(=O)NC2C3CC4CC(C3)CC2C4)CC1 (some centres unmarked) [Example 61] | –
92.1% | 9.59 nM | – | C[C@@H](NC(=O)[C@H]1CCCN1CC1CCCC1)c1ccccc1 [Example 292] | –
– | – | 100% | CC(C)CN1CCC[C@@H]1C(=O)N[C@@H]1CCCc2ccccc21 [Example 51] | Ki (human 11b-hsd-1): 1 nM
83.5% | 30 nM | – | CC(C)CN1CCC[C@@H]1C(=O)NCC1(O)CCCC1 [Example 330] | –
100% | 9.6 nM | – | CN(C(=O)[C@@H]1CSCN1Cc1ccc(Cl)cc1)C1CCCCC1 [Example 192] | –
– | – | 100% | CCCCN1CCC[C@@H]1C(=O)NC1CCCCC1 [Example 100] | Ki (human 11b-hsd-1): 4 nM
– | – | 100% | CN(CCN1CCC[C@@H]1C(=O)NC1C2CC3CC(C2)CC1C3)Cc1ccccc1 (some centres unmarked) [Example 110, 1-[2-(Benzyl-methyl-amino)ethyl]-pyrrolidine-2-carboxylic acid adamantan-2-ylamide] | –
82.6% | 52 nM | – | Cc1ccccc1CNC(=O)[C@H]1CCCN1Cc1ccc(C#N)cc1 [Example 252] | –
35.7% | – | – | O=C(NCc1ccc(Cl)cc1)[C@H]1CCCN1Cc1ccc(Cl)cc1 [Example 325] | –
– | – | 100% | CC1(C)CC(NC(=O)C2COCCN2CC2CCCCC2)CC(C)(C)C1 (centres unmarked) [Example 188] | Ki (human 11b-hsd-1): 1.7 nM
100% | 25 nM | – | COc1ccccc1CNC(=O)[C@H]1CCCN1CC1CCCC1 [Example 261] | –
80.2% | 32 nM | – | CCC1CCCCN1C(=O)C1CCCCN1Cc1ccc(Cl)cc1 (centres unmarked) [Example 199] | –
100% | 4.9 nM | – | N#Cc1ccc(CN2CCOC[C@@H]2C(=O)NC2CCCCC2)cc1 [Example 306] | –
82.2% | 22 nM | – | O=C(NCc1ccccc1)[C@H]1CCCN1CC1CCCC1 [Example 226] | –
– | – | 81% | NC1C[C@H](C(=O)NC2C3CC4CC(C3)CC2C4)N(CC2CCCC2)C1 (stereo partly drawn) [Example 45, N-2-adamantyl-4-amino-1-(cyclopentylmethyl)-D-prolinamide] | –
– | – | 88% | CCN1[C@@H](C(=O)NC2CCCCC2)CCC1(C)C [Example 131] | –
– | – | 100% | CC(C)CN1CCC[C@@H]1C(=O)NC12C3C4C1C1C2C3C41C (some centres unmarked) [Example 122] | –
71.5% | 47 nM | – | O=C(NCc1ccc(F)cc1)[C@H]1CCCN1Cc1ccccc1Cl [Example 232] | –
– | – | 92% | O=C(NC1C2CC3CC(C2)CC1C3)[C@H]1CCCN1CCN1CCCC1 (some centres unmarked) [Example 132] | –

inhibition at 0.1 µM (0.1 μM compound) | Ki | inhibition at 0.1 µM (compound at 0.1 μM) | SMILES | also measured
86.2% | 153 nM | – | O=C(NCc1ccc(F)cc1)[C@H]1CCCN1CC1CC1 [Example 225] | –
86.6% | 26 nM | – | CCCN1CCOC[C@@H]1C(=O)NC1CCCCC1 [Example 331] | –
– | – | 69% | CC(C)CN1C[C@H](O)C[C@@H]1C(=O)NC1CCCCC1 [Example 29] | Ki (human 11b-hsd-1): 39.2 nM
– | – | 92% | O=C(NCc1ccccc1)[C@H]1CCCN1CC1CCCCC1 [Example 3, N-benzyl-1-(cyclohexylmethyl)-D-prolinamide] | Ki (human 11b-hsd-1): 15 nM
– | – | 100% | C[C@@H](O)CN1CCC[C@@H]1C(=O)NC1C2CC3CC(C2)CC1C3 (some centres unmarked) [Example 118] | –
69.4% | 69 nM | – | Cc1ccc(CNC(=O)[C@H]2CCCN2CCC(F)(F)F)cc1 [Example 326] | –
– | – | 100% | C[C@H](O)CN1CCC[C@@H]1C(=O)NC1C2CC3CC(C2)CC1C3 (some centres unmarked) [Example 117] | –
– | – | 91% | O=C(NC1CCCCC1)[C@H]1CCCN1CC1CCOCC1 [Example 99] | Ki (human 11b-hsd-1): 8 nM
100% | 1 nM | – | O=C(NC1C2CC3CC(C2)CC1C3)[C@@H]1C[C@H](Oc2ccccc2)CN1 (some centres unmarked) [Example 338] | –
100% | 3.2 nM | – | N#Cc1ccc(CN2CCC[C@@H]2C(=O)NCC2CCCCC2)cc1 [Example 328] | –
– | – | 100% | CC1(C)CC(NC(=O)C2COCCN2Cc2cccc(OC(F)F)c2)CC(C)(C)C1 (centres unmarked) [Example 189] | Ki (human 11b-hsd-1): 1.1 nM
92.1% | 11 nM | – | CC(C)CN1C[C@H](O)C[C@H]1C(=O)NC12CC3CC(CC(C3)C1)C2 [Example 207] | –
100% | 11 nM | – | Cc1ccc(CNC(=O)[C@H]2CCCN2CC(C)C)cc1 [Example 259] | –
– | – | 100% | CCCN1CCC[C@@H]1C(=O)NC1CCC(C)CC1 (some centres unmarked) [Example 106] | Ki (human 11b-hsd-1): 2 nM
77.8% | 66 nM | – | COc1ccccc1CNC(=O)[C@H]1CCCN1CCc1ccccc1 [Example 269] | –
– | – | 0% | CN1CCC(CN2C[C@H](O)C[C@@H]2C(=O)NC2CCCCC2)CC1 [Example 42, (4R)-N-cyclohexyl-4-hydroxy-1-[(1-methylpiperidin-4-yl)methyl]-D prolinamide] | –
– | – | 100% | CC(C)CN1CCC[C@@H]1C(=O)NCC1(O)CCCCC1 [Example 69] | Ki (human 11b-hsd-1): 7 nM
100% | 1.7 nM | – | O=C(NC1C2CC3CC(C2)CC1C3)[C@@H]1C[C@H](Oc2cccc(F)c2)CN1 (some centres unmarked) [Example 319] | –
100% | 1.2 nM | – | CC(C)CN1CCC[C@@H]1C(=O)NC1Cc2ccccc2C1 [Example 289] | –
88.4% | 16.3 nM | – | CC(C)CN1CCC[C@@H]1C(=O)NCc1ccc(F)cc1F [Example 238] | –
– | – | 100% | O=C(NC1C2CC3CC(C2)CC1C3)[C@H]1COCCN1CC1CCCC1 (some centres unmarked) [Example 63] | Ki (human 11b-hsd-1): 1 nM
100% | 5.2 nM | – | O=C(NC1C2CC3CC(C2)CC1C3)[C@@H]1NCC[C@H]1c1ccccc1 (some centres unmarked) [Example 340] | –
100% | 1.77 nM | – | CC(C)CN1CCC[C@@H]1C(=O)N[C@H](C)c1ccc(Cl)cc1 [Example 298] | –
100% | 7 nM | – | Cc1ccccc1CNC(=O)[C@H]1CCCN1CC(C)C [Example 256] | –

inhibition at 0.1 µM (0.1 μM compound) | Ki | inhibition at 0.1 µM (compound at 0.1 μM) | SMILES | also measured
– | – | 100% | CCN1CCOC[C@@H]1C(=O)NC1C2CC3CC(C2)CC1C3 (stereo partly drawn) [Example 1, (R)-4-Ethyl-morpholine-3-carboxylic acid adamantan-2-ylamide] | Ki (human 11b-hsd-1): 2.1 nM
97.7% | 1 nM | – | O=C(NC1C2CC3CC(C2)CC1C3)[C@@H]1C[C@H](Oc2ccc(Cl)cc2)CN1 (some centres unmarked) [Example 339] | –
100% | 1.4 nM | – | Cc1cc(F)ccc1O[C@@H]1CN[C@H](C(=O)NC2C3CC4CC(C3)CC2C4)C1 (some centres unmarked) [Example 356] | –
– | – | 92% | CCCN1CCC[C@@H]1C(=O)N[C@@H]1C[C@H]2CC[C@@H]1C2 [Example 89] | –
86.6% | 168 nM | – | CC(C)CN1CCC[C@@H]1C(=O)NCc1ccccn1 [Example 219] | –
85.3% | 27 nM | – | CC(C)CN1CSC[C@@H]1C(=O)N(C)C1CCCCC1 [Example 196] | –
97.8% | 13 nM | – | CC(C)CN1C[C@H](O)C[C@@H]1C(=O)NCC1CCCCC1 [Example 337] | –
– | – | 100% | N#Cc1cccc(CN2CCOCC2C(=O)NC23CC4CC(CC(C4)C2)C3)c1 (centres unmarked) [Example 179] | Ki (human 11b-hsd-1): 2 nM
– | – | 100% | O=C(NC1CCCCC1)[C@H]1CCCN1CC(F)(F)F [Example 101] | Ki (human 11b-hsd-1): 5 nM
100% | 1.8 nM | – | Cc1cc(Cl)ccc1O[C@@H]1CN[C@H](C(=O)NC2C3CC4CC(C3)CC2C4)C1 (some centres unmarked) [Example 349] | –
100% | 4.9 nM | – | COc1cc(F)ccc1O[C@@H]1CN[C@H](C(=O)NC2C3CC4CC(C3)CC2C4)C1 (some centres unmarked) [Example 353] | –
96.4% | 6.8 nM | – | O=C(NC1C2CC3CC(C2)CC1C3)[C@H]1NCC[C@@H]1Cc1ccc(F)cc1 (some centres unmarked) [Example 368] | –
– | – | 100% | O=C(NC12CC3CC(CC(C3)C1)C2)C1COCCN1Cc1ccccc1 (centres unmarked) [Example 178] | Ki (human 11b-hsd-1): 1 nM
– | – | – | O=C(NC1CCCCC1)[C@H]1CCCN1CC1CCCO1 (some centres unmarked) [Example 97] | Ki (human 11b-hsd-1): 7 nM; % inh @ 0.1 μM (compound at 0.1 μM, 0.1 µM): 100%
100% | 1 nM | – | O=C(NC1C2CC3CC(C2)CC1C3)[C@@H]1C[C@H](Oc2ccc(F)c(F)c2F)CN1 (some centres unmarked) [Example 355] | –
100% | 12.8 nM | – | CC(C)CN1CCOC[C@@H]1C(=O)NC1Cc2ccccc2C1 [Example 307] | –
97.5% | 9.9 nM | – | O=C(NC1C2CC3CC(C2)CC1C3)[C@H]1NCC[C@@H]1C1CCCC1 (some centres unmarked) [Example 342] | –
69.2% | 69 nM | – | O=C(NCc1ccc(F)cc1)[C@H]1CCCN1CCC(F)(F)F [Example 324] | –
73.2% | 50 nM | – | CCC1CCCCN1C(=O)[C@H]1CCCN1Cc1ccc(Cl)cc1 (some centres unmarked) [Example 197] | –
100% | 1.9 nM | – | CCOc1ccccc1O[C@@H]1CN[C@H](C(=O)NC2C3CC4CC(C3)CC2C4)C1 (some centres unmarked) [Example 361] | –
100% | 3.17 nM | – | CC(C)CN1CCC[C@@H]1C(=O)NC12CC3CC(CC(C3)C1)C2 [Example 205] | –
86% | 4.1 nM | – | O=C(NCc1ccccc1Cl)[C@H]1CCCN1CCC(F)(F)F [Example 265] | –
– | – | 96% | CS(=O)(=O)N1CCC[C@@H]1CN1CCC[C@@H]1C(=O)NC1C2CC3CC(C2)CC1C3 (some centres unmarked) [Example 134] | –
